Laboratory results as given in ChEMBL document CHEMBL1153200, “Discovery of 3,6-dihydro-2H-pyran as a morpholine replacement in 6-aryl-1H-pyrazolo[3,4-d]pyrimidines and 2-arylthieno[3,2-d]pyrimidines: ATP-competitive inhibitors of the mammalian target of rapamycin (mTOR)” (Bioorg Med Chem Lett, 2010).

Key:
[1] = biological target: Serine/threonine-protein kinase mTOR (Homo sapiens, UniProt P42345); experiment: Inhibition of mTOR in HEK293 cells by DELFIA assay; assay type: cell-based
[2] = Selectivity ratio, IC50 for PI3Kalpha to IC50 for human mTOR
[3] = biological target: Phosphatidylinositol 4,5-bisphosphate 3-kinase catalytic subunit alpha isoform (Homo sapiens, UniProt P42336); experiment: Inhibition of PI3Kalpha by fluorescence polarization assay
[4] = Half life in nude mouse microsomes; assay type: ADME, Microsome
LNCaP = experiment: Cytotoxicity against human LNCAP cells after 1 to 2 hrs by MTS assay; assay type: functional, cell-based

Sequence of Phosphatidylinositol 4,5-bisphosphate 3-kinase catalytic subunit alpha isoform (P42336 whole entry, canonical isoform): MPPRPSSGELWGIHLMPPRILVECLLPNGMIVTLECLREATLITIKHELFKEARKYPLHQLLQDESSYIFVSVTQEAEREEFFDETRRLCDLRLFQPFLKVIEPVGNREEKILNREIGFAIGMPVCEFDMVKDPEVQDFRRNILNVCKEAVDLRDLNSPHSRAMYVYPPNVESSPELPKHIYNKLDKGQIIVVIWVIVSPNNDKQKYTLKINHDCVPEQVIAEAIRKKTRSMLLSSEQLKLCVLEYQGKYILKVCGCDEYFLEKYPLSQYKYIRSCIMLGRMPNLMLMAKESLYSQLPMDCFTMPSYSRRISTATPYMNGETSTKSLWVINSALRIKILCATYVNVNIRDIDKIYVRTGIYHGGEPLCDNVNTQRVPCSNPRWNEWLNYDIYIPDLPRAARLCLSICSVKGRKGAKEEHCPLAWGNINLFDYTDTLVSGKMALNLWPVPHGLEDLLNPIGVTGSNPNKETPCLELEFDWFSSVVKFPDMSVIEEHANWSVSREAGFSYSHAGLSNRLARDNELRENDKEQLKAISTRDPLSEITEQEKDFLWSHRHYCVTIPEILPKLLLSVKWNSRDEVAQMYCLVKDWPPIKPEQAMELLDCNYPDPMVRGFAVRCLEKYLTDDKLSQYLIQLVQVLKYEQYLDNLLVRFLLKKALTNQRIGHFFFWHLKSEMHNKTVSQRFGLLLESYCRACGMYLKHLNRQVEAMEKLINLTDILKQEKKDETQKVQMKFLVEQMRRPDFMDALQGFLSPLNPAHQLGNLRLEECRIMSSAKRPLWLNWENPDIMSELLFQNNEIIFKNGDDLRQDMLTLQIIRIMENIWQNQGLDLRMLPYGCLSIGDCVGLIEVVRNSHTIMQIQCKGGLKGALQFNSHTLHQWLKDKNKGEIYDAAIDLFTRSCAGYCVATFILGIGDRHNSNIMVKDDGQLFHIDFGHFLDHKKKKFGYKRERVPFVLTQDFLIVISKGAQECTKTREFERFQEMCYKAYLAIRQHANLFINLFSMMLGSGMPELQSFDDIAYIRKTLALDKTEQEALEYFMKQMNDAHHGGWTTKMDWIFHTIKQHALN

| Compound | IC50 [1] | Ratio IC50 [2] | IC50 [3] | half-life [4] | IC50 (LNCaP) | IC50 ([1]; hek293) |
| --- | --- | --- | --- | --- | --- | --- |
| Oc1cccc(-c2nc(C3=CCOCC3)c3cnn(-c4ccccc4)c3n2)c1 | 0.018 µM | 3.3 | 0.059 µM | – | – | – |
| O=C(Nc1ccc(-c2nc(N3CCOCC3)c3cnn(CC(F)(F)F)c3n2)cc1)Nc1cccnc1 | 0.0002 µM | 50 | – | > 30 min | < 0.027 µM | – |
| O=C(Nc1ccc(-c2nc(C3=CCOCC3)c3sccc3n2)cc1)Nc1cccnc1 | 0.0011 µM | 32 | 0.035 µM | > 30 min | 0.21 µM | – |
| O=C(NCCF)Nc1ccc(-c2nc(C3=CCOCC3)c3sccc3n2)cc1 | 0.0025 µM | 560 | 1.37 µM | 6 min | 1.3 µM | – |
| CCNC(=O)Nc1ccc(-c2nc(C3=CCOCC3)c3sccc3n2)cc1 | 0.0033 µM | 319 | 1.05 µM | 3 min | 0.47 µM | – |
| Oc1cccc(-c2nc(C3CCOCC3)c3cnn(-c4ccccc4)c3n2)c1 | 0.5 µM | 2 | 1.01 µM | – | – | – |
| CNC(=O)Nc1ccc(-c2nc(N3CCOCC3)c3cnn(CC(F)(F)F)c3n2)cc1 | – | 194 | – | 26 min | 0.23 µM | 0.001 µM |
| O=C(Nc1ccccc1)Nc1ccc(-c2nc(C3=CCOCC3)c3sccc3n2)cc1 | 0.0072 µM | 4 | 0.028 µM | 21 min | 0.8 µM | – |
| CNC(=O)Nc1ccc(-c2nc(C3=CCOCC3)c3cnn(CC(F)(F)F)c3n2)cc1 | 0.002 µM | 100 | 0.2 µM | 13 min | 0.26 µM | – |
| O=C(NCCF)Nc1ccc(-c2nc(N3CCOCC3)c3cnn(CC(F)(F)F)c3n2)cc1 | – | 525 | – | 22 min | 0.06 µM | 0.0006 µM |
| O=C(Nc1ccc(-c2nc(C3=CCOCC3)c3cnn(CC(F)(F)F)c3n2)cc1)Nc1cccnc1 | 0.001 µM | 66 | – | 25 min | 0.38 µM | – |
| O=C(NCCF)Nc1ccc(-c2nc(C3=CCOCC3)c3cnn(CC(F)(F)F)c3n2)cc1 | 0.001 µM | 2300 | – | > 30 min | 0.072 µM | – |
| O=C(Nc1ccncc1)Nc1ccc(-c2nc(C3=CCOCC3)c3sccc3n2)cc1 | 0.0018 µM | 15 | 0.027 µM | > 30 min | 0.2 µM | – |
